Laboratory results from patent US7994172B2, “[1H-pyrazolo[3, 4-D]pyrimidin-4-yl]-piperidine or -piperazine compounds as serine-theoronine kinase modulators (P70s6k, Atk1 and Atk2) for the treatment of immunological, inflammatory and proliferative diseases” (Exelixis, Inc., priority 2004, dated 2011).

How the values were obtained:
[1] = biological target: T1, human p70S6 kinase (p70S6K, kinase domain residues 1-421, T412E mutation) (Homo sapiens, UniProt P23443, T412E); experiment: p70S6 kinase assay, Luciferase-Coupled Chemiluminescent Kinase assay (LCCA); format: biochemical; conditions: 5 μM ATP, 12 nM p70S6K; read-out: p70S6K inhibition IC50
T1 construct: human p70S6 kinase domainresidues 1-421, containing a T412E mutation; made in house
T1 sequence (P23443 1-421 T412E): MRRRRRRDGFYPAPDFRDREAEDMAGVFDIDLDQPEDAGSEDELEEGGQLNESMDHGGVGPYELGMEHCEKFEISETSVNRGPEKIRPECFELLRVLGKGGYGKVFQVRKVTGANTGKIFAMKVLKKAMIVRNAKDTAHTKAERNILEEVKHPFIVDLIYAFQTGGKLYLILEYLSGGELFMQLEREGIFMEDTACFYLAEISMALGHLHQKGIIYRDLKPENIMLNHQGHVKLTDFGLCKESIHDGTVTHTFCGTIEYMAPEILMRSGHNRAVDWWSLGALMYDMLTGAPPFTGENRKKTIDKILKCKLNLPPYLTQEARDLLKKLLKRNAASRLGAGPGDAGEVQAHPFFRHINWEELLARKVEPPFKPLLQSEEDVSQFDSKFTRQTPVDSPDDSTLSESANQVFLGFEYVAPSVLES
Procedure: (§1) Kinase activity and compound inhibition are investigated using one or more of the three assay formats described below. The ATP concentrations for each assay are selected to be close to the Michaelis-Menten constant (KM) for each individual kinase. Dose-response experiments are performed at 10 different inhibitor concentrations in a 384-well plate format. The data are fitted to four-parameter equation (2) below; where Y is the observed signal, X is the inhibitor concentration, Min is the background signal in the absence of enzyme (0% enzyme activity), Max is the signal in the absence of inhibitor (100% enzyme activity), IC50 is the inhibitor concentration at 50% enzyme inhibition and H represents the empirical Hill's slope to measure the cooperativity. Typically H is close to unity. Y=Min+(Max−Min)/(1+(X/IC50)^H) Equation (2) p70S6 Kinase Assay
Biochemical activity of p70S6 kinase was assessed using a Luciferase-Coupled Chemiluminescent Kinase assay (LCCA) format. Kinase activity was measured as the percent ATP remaining following the kinase reaction. Remaining ATP was detected by luciferase-luciferin-coupled chemiluminescence. Specifically, the reaction was initiated by mixing test compounds, 5 μM ATP, 5 μM RRRLSSLRA peptide and 12 nM p70S6K (baculovirus expressed human p70S6 kinase domainresidues 1-421, containing a T412E mutation) in a 20 uL assay buffer (20 mM Tris-HCL pH 7.5, 10 mM MgCl2, 0.02% Triton X-100, 100 mM DTT, 2 mM MnCl2). The mixture is incubated at ambient temperature for 2 hours after which 20 μL luciferase-luciferin mix is added and the chemiluminescent signal read using a Wallac Victor^2 reader. The luciferase-luciferin mix consists of 50 mM HEPES, pH 7.8, 8.5 μg/mL oxalic acid (pH 7.8), 5 (or 50) mM DTT, 0.4% Triton X-100, 0.25 mg/mL coenzyme A, 63 uM AMP, 28 μg/mL luciferin and 40,000 units/mL luciferase.

[2] = biological target: T2, human Akt1 kinase (kinase domain residues R144-A480, activated with PDK1) (Homo sapiens, UniProt P31749); experiment: Akt1 kinase assay, Luciferase-Coupled Chemiluminescent Kinase assay (LCCA); format: biochemical; conditions: 1 μM ATP, 1.3 nM Akt1; read-out: Akt-1 inhibition IC50
T2 construct: made in house
T2 sequence (P31749 144-480): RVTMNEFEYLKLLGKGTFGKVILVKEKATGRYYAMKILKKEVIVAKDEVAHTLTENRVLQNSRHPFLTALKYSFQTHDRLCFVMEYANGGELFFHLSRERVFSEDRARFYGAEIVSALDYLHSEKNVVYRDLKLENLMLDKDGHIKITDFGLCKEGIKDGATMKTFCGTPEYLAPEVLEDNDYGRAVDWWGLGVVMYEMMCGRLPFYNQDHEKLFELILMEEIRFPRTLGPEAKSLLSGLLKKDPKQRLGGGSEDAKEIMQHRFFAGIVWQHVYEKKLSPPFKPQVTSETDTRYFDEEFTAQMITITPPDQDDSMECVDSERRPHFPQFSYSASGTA
Procedure: as §1
Biochemical activity of Akt1 kinase was assessed using a Luciferase-Coupled Chemiluminescent Kinase assay (LCCA) format. Kinase activity was measured as the percent ATP remaining following the kinase reaction. Remaining ATP was detected by luciferase-luciferin-coupled chemiluminescence. Specifically, the reaction was initiated by mixing test compounds, 1 μM ATP, 5 μM crosstide peptide and 1.3 nM Akt1 (baculovirus expressed human Akt1 kinase domain residues R144-A480, activated with PDK1) in a 20 uL assay buffer (20 mM Tris-HCL pH 7.5, 10 mM MgCl2, 0.01% Triton X-100, 1 mM DTT, 3 mM MnCl2). The mixture is incubated at ambient temperature for 3 hours after which 20 μL luciferase-luciferin mix is added and the chemiluminescent signal read using a Wallac Victor2 reader. The luciferase-luciferin mix consists of 50 mM HEPES, pH 7.8, 8.5 μg/mL oxalic acid (pH 7.8), 5 (or 50) mM DTT, 0.4% Triton X-100, 0.25 mg/mL coenzyme A, 63 uM AMP, 28 μg/mL luciferin and 40,000 units/mL luciferase.

Structure (SMILES) | IC50 [1] [nM] | IC50 [2] [nM]
COC(=O)c1ccc(CN2CCN(c3ncnc4[nH]nc(Br)c34)CC2)cc1 [Entry 42, methyl 4-{[4-(3-bromo-1H-pyrazolo[3,4-d]pyrimidin-4-yl)piperazin-1-yl]methyl}benzoate] | < 50 | > 2000
CN(Cc1ccco1)C(c1ccc(F)cc1)C1CCN(c2ncnc3[nH]nc(Br)c23)CC1 (stereo not drawn) [Entry 96, 1-[1-(3-bromo-1H-pyrazolo[3,4-d]pyrimidin-4-yl)piperidin-4-yl]-1-(4-fluorophenyl)-N-(furan-2-ylmethyl)-N-methylmethanamine] | 50 to 500 | 500 to 2000
CN(C)CCNC(=O)C(=O)N(c1ccc(Cl)cc1)C1CCN(c2ncnc3[nH]nc(Br)c23)CC1 [Entry 28, N-[1-(3-bromo-1H-pyrazolo[3,4-d]pyrimidin-4-yl)piperidin-4-yl]-N-(4-chlorophenyl)-N′-[2-(dimethylamino)ethyl]ethanediamide] | < 50 | < 50
CN(C)CCOC(c1ccc(F)cc1)C1CCN(c2ncnc3[nH]nc(Br)c23)CC1 (stereo not drawn) [Entry 25, 2-{[[1-(3-bromo-1H-pyrazolo[3,4-d]pyrimidin-4-yl)piperidin-4-yl](4-fluorophenyl)methyl]oxy}-N,N-dimethylethanamine] | < 50 | < 50
CN(C)CCO[C@@H](c1ccc(Cl)cc1)C1CCN(c2ncnc3[nH]nc(Br)c23)CC1 [Entry 86, 2-{[(R)-[1-(3-bromo-1H-pyrazolo[3,4-d]pyrimidin-4-yl)piperidin-4-yl](4-chlorophenyl)methyl]oxy}-N,N-dimethylethanamine] | < 50 | < 50
COCCCNC(=O)c1ccc(CN2CCN(c3ncnc4[nH]nc(Br)c34)CC2)cc1 [Entry 82, 4-{[4-(3-bromo-1H-pyrazolo[3,4-d]pyrimidin-4-yl)piperazin-1-yl]methyl}-N-[3-(methyloxy)propyl]benzamide] | > 2000 | > 2000
CN(C)CCOCC1CN(c2ncnc3[nH]nc(Br)c23)CCN1Cc1ccc(Cl)cc1 (stereo not drawn) [Entry 83, 2-[({4-(3-bromo-1H-pyrazolo[3,4-d]pyrimidin-4-yl)-1-[(4-chlorophenyl)methyl]piperazin-2-yl}methyl)oxy]-N,N-dimethylethanamine] | > 2000 | > 2000
Clc1ccc(OC2CCN(c3ncnc4[nH]nc(Br)c34)CC2)c(NCCN2CCCC2)c1 [Entry 103, 2-{[1-(3-bromo-1H-pyrazolo[3,4-d]pyrimidin-4-yl)piperidin-4-yl]oxy}-5-chloro-N-(2-pyrrolidin-1-ylethyl)aniline] | 50 to 500 | 50 to 500
Clc1ccc([C@H](OCCN2CCCC2)C2CCN(c3ncnc4[nH]nc(Br)c34)CC2)cc1 [Entry 90, 3-bromo-4-(4-{(R)-(4-chlorophenyl)[(2-pyrrolidin-1-ylethyl)oxy]methyl}piperidin-1-yl)-1H-pyrazolo[3,4-d]pyrimidine] | < 50 | < 50
CCN(CC)CCN(C)C(c1ccc(Cl)cc1)C1CCN(c2ncnc3[nH]nc(Br)c23)CC1 (stereo not drawn) [Entry 21, N-[[1-(3-bromo-1H-pyrazolo[3,4-d]pyrimidin-4-yl)piperidin-4-yl](4-chlorophenyl)methyl]-N′,N′-diethyl-N-methylethane-1,2-diamine] | < 50 | < 50
Fc1cc(Cl)ccc1CN1CCN(c2ncnc3[nH]nc(Br)c23)CC1 [Entry 17, 3-bromo-4-{4-[(4-chloro-2-fluorophenyl)methyl]piperazin-1-yl}-1H-pyrazolo[3,4-d]pyrimidine] | < 50 | 50 to 500
CCN(CC)CCCNC(=O)C1(c2ccc(Cl)cc2)CCN(c2ncnc3[nH]nc(Br)c23)CC1 [Entry 49, 1-(3-bromo-1H-pyrazolo[3,4-d]pyrimidin-4-yl)-4-(4-chlorophenyl)-N-[3-(diethylamino)propyl]piperidine-4-carboxamide] | < 50 | 500 to 2000
